One experiment concerns the target T1, HIV-1 protease (Human immunodeficiency virus type 1 group M subtype B, UniProt P04585).
T1 construct: The protease (or proteinase), consisting of only 99 amino acids, is among the smallest enzymes known
The experiment in a line: In vitro HIV protease inhibitory assay (HIV Protease FITC Assay). It counts as biochemical. The procedure, abridged:
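Percent inhibition was read as fluorescence after avidin-bead capture and filtration separated FITC cleavage product from biotinylated substrate. Enzyme and substrate reacted 1 h, RT, dark, at pH 5.5 (0.1 M sodium acetate, 1.0 M NaCl, 0.05% NP-40).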

In experiment [1] the test system is testosterone 5α-reductase. Briefly: In vitro testosterone 5α-reductase inhibitor assay. The following applies: at a dose of at least 0.1 mM; dog and rat prostates. It counts as biochemical. The procedure: The following five (5) compounds of the present invention were tested in an in vitro testosterone 5α-reductase inhibitor assay: 3-(α-Ethylbenzyl)-6-(α-ethylphenethyl)-4-hydroxy-2H-pyran-2-one; 6-(1-Benzyl-propyl)-3-(cyclopropyl-phenyl-methyl)-4-hydroxy-pyran-2-one; 3-(α-Ethylbenzyl)-6-(α-ethylbenzyl)-4-hydroxy-2H-pyran-2-one; 3-(α-Ethylbenzyl)-6-phenethyl-4-hydroxy-2H-pyran-2-one; 4-Hydroxy-3-(1-phenylpropyl)-6-[1-[(tetrahydro-2H-pyran-3-yl)methyl]propyl]-2H-pyran-2-one. This assay is very similar to those described in the following references, except for the use of dog and rat prostates in place of human prostates: Proc. Natl. Acad. Sci. USA, Vol. 90: 5277-5281 (1993); J. Steroid. Biochem. Molec. Biol., Vol. 44, No. 2, pp. 121-131 (1993). All five (5) compounds had activity in this assay at a dose of at least 0.1 mM.

Setting [2] is: HIV-1 Dose 1.000 uM, read-out: HIV-1 Protease % Inhib.
The mark [3] stands for this setting: HIV-1 Dose 10.000 uM, read-out: HIV-1 Protease % Inhib.
The mark [4] stands for this setting: HIV-1 Dose 100.000 uM, read-out: HIV-1 Protease % Inhib.

In general, Ki refers to a measure of affinity in units of concentration, obtained from inhibition or displacement.

Consider `CCC(c1ccccc1)c1c(O)cc(CCc2ccccc2)oc1=O` (stereo not drawn) [Example 3, 3-(α-ethylbenzyl)-6-phenethyl-4-hydroxy-2H-Pyran-2-one], for which the inhibition at 1 µM on HIV-1 protease (setting [2]) is 19%. Further, on HIV-1 protease (setting [3]), the inhibition at 10 µM worked out at 67.4%. In experiment [1], the “activity in testosterone 5α-reductase inhibitor assay” value is given as “had activity”.
Turning to `CCC(Cc1ccccc1)c1cc(O)c(C(c2ccccc2)C2CC2)c(=O)o1` (stereo not shown) [Example 86, 6-(1-Benzyl-propyl)-3-(cyclopropyl-phenyl-methyl)-4-hydroxy-pyran-2-one], the inhibition at 1 µM on HIV-1 protease (setting [2]) came out at 58.1%. Also, the inhibition at 10 µM on HIV-1 protease (setting [3]) amounted to 83%. Moreover, the inhibition at 100 µM on HIV-1 protease (setting [4]) was determined as 55.3%. The “activity in testosterone 5α-reductase inhibitor assay” value in experiment [1] was “had activity”.
With `CCC(CC1CCCOC1)c1cc(O)c(C(CC)c2ccccc2)c(=O)o1` (stereo not shown) [Example 135, 4-Hydroxy-3-(1-phenylpropyl)-6-[1-[(tetrahydro-2H-pyran-3-yl)methyl]propyl]-2H-pyran-2-one], the inhibition at 0.123 µM at HIV-1 protease (HIV-1 Dose 0.123 uM, read-out: HIV-1 Protease % Inhib) is 12.4%. In addition, at HIV-1 protease (HIV-1 Dose 0.370 uM, read-out: HIV-1 Protease % Inhib), the inhibition at 0.37 µM came to 26.5%. Further, the inhibition at 1.1 µM on HIV-1 protease (HIV-1 Dose 1.100 uM, read-out: HIV-1 Protease % Inhib) is 65.6%. For the same molecule, the inhibition at 3.3 µM on HIV-1 protease (HIV-1 Dose 3.300 uM, read-out: HIV-1 Protease % Inhib) is 87.9%. In addition, on HIV-1 protease (setting [3]), the inhibition at 10 µM was 103%. Also, the inhibition at 30 µM on HIV-1 protease (HIV-1 Dose 30.000 uM, read-out: HIV-1 Protease % Inhib) is 99.9%. The Ki on HIV-1 protease (read-out: HIV-1 FITC Ki) is 45 nM. The “activity in testosterone 5α-reductase inhibitor assay” value in experiment [1] is listed as “had activity”.
`C=CC(c1ccccc1)c1c(O)cc(C)oc1=O` (stereo not shown) [PREPARATION 10, 4-Hydroxy-6-methyl-3-(1'-phenyl-2'-propenyl)-2-pyrone]: at HIV-1 protease, the HIV activity entry was “found to have HIV activity”. For the same molecule, the inhibition at 1 µM on HIV-1 protease (setting [2]) is less than 10%. Also, the inhibition at 10 µM on HIV-1 protease (setting [3]) is less than 10%. Further, the inhibition at 100 µM at HIV-1 protease (setting [4]) amounted to 43.5%.
In the case of “Dimethyl 3-[(4-hydroxy-2-oxo-6-phenyl-2H-1-pyran-3-yl)(3-nitrophenyl)methyl] -1,3-propandioate [Example 29]”, the “HIV-1 Protease % Inhib” value on HIV-1 protease (HIV-1 Dose 1.000 uM) was less than 10%; on HIV-1 protease (HIV-1 Dose 10.000 uM), less than 10%; at HIV-1 protease (HIV-1 Dose 100.000 uM), 32.16%.
Turning to “Dimethyl 3-[(4-hydroxy-2-oxo-6-phenyl-2H-1-pyran-3-yl)(4-nitrophenyl)methyl] - 1,3-propandioate [Example 28]”, the “HIV-1 Protease % Inhib” value at HIV-1 protease (HIV-1 Dose 1.000 uM) is reported as less than 10%; on HIV-1 protease (HIV-1 Dose 10.000 uM) it was 15.07%; on HIV-1 protease (HIV-1 Dose 100.000 uM) it was 76.68%.

The record behind these values is patent EP1203770A1 (priority 1992, dated 1994).
